Source: patent US20250243488A1, “METHODS OF MODULATING PROGRANULIN EXPRESSION USING ANTISENSE OLIGONUCLEOTIDES TARGETING REGULATORY RNAS” (Camp4 Therapeutics Corporation, priority 2022, published 2025)
Oligonucleotides are written 5' to 3', each unit as a sugar letter and its base; * is a phosphorothioate linkage, no mark a phosphodiester; rarer units and linkages stand in square brackets, end groups in braces. Plain capitals give the bases only. e = 2'-O-(2-methoxyethyl) (MOE); l = locked nucleic acid (LNA); [5mC] = 5-methylcytosine; d = 2'-deoxy (DNA)

Test system: GRN mRNA
Test: GRN mRNA qPCR in SK-N-AS cells transfected with ASOs
Type: cell-based, human
Details: SK-N-AS; for 120 nM FC (GRN mRNA) / hGRN mRNA FC: 120 nM
Method in brief: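 Human neuroblastoma SK-N-AS cells transfected with ASOs at increasing concentrations (20 to 160 nM in initial titrations); GRN mRNA quantified by qPCR after 48 hours. Normalized to GAPDH and PPIA, fold change relative to steric non-targeting control ASO(s) (sNTC/CO-1589, with CO-3772 and CO-1929 in some series).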

[1] = Table 12, normalized to CO-1589
[2] = Table 9, 48 hours post-transfection, normalized to CO-1589
[3] = Table 8, normalized to CO-1589 (sNTC1)
[4] = Table 6, normalized to CO-3772, CO-1589 and CO-1929
[5] = Table 4, normalized to CO-3772 and CO-1589 (sNTC1)
[6] = Table 13, normalized to CO-1589
[7] = Table 11, 48 hours, normalized to CO-1589
[8] = Table 10, 48 hours, normalized to CO-1589
[9] = Table 3, normalized to CO-3772 and CO-1589 (sNTC1)
[10] = Table 5, normalized to CO-3772, CO-1589 and CO-1929

## CO-6380: ASO based on parent ASO CO-3462 (antisense eA*eA*eA*eA*e[5mC]*eA*eA*eA*e[5mC]*eA*e[5mC]*eA*e[5mC]*eA*eA*eG*eT*e[5mC]*e[5mC]*eG)
[1]
  30 nM FC (GRN mRNA): 0.8 FC
  60 nM FC (GRN mRNA): 0.8 FC
  120 nM FC (GRN mRNA): 0.8 FC

## CO-6390: ASO based on parent ASO CO-3462 (antisense eT*eA*eG*eG*lA*dG*dA*dA*lT*d[5mC]*dG*d[5mC]*lT*dT*dT*eG*lG*eG*eA*eG)
[1]
  30 nM FC (GRN mRNA): 1.3 FC
  60 nM FC (GRN mRNA): 1.3 FC
  120 nM FC (GRN mRNA): 1.5 FC

## CO-4596: ASO designed to target intergenic enhancers (eRNA) (antisense e[5mC]*eA*eA*e[5mC]*eT*eA*eT*e[5mC]*eA*eG*eT*e[5mC]*eA*eA*eG*eG*eT*e[5mC]*eG*eG)
[2]
  hGRN mRNA FC: 1.0 FC

## CO-5288: ASO based on CO-3463 incorporating additional LNA modifications (antisense lG*lG*eA*lT*lA*eG*lG*eA*lT*eA*lG*eG*lA*eG*l[5mC]*eG*lA*eG*l[5mC]*l[5mC])
Table 8 series
  GRN mRNA upregulation as compared to control ASO CO-1589: 2 fold
[3]
  7.5 nM FC (GRN mRNA): 1.3 FC
  30 nM FC (GRN mRNA): 1.5 FC
  60 nM FC (GRN mRNA): 1.9 FC
  120 nM FC (GRN mRNA): 1.9 FC
Table 8, 13 nM, normalized to CO-1589 (sNTC1)
  13 nM FC (GRN mRNA): 1.5 FC
Table 8, 150 nM, normalized to CO-1589 (sNTC1)
  150 nM FC (GRN mRNA): 2.1 FC

## CO-4456: mixed PO/PS bond version of CO-3431 (antisense eA*eT*eTeGe[5mC]eAeG*eT*eG*eA*e[5mC]*eG*e[5mC]*e[5mC]e[5mC]e[5mC]eGeT*eT*eA)
[4]
  30 nM FC (GRN mRNA): 0.7 FC
  60 nM FC (GRN mRNA): 0.5 FC
  120 nM FC (GRN mRNA): 0.4 FC

## CO-4362: longer ASO based on CO-3423 (antisense eG*eA*e[5mC]*eT*eT*dG*dG*dG*eA*dG*dT*eG*dG*dT*dG*eA*e[5mC]*eT*eG*eA)
[5]
  30 nM FC (GRN mRNA): 1.1 FC
  60 nM FC (GRN mRNA): 1.1 FC
  120 nM FC (GRN mRNA): 1.4 FC

## CO-6406: ASO based on parent ASO CO-3462 (antisense eG*eG*eT*eA*eG*dG*dA*lG*dA*dA*lT*d[5mC]*dG*l[5mC]*dT*dT*lT*dG*dG*eG*eA*eG*e[5mC]*eA)
[1]
  30 nM FC (GRN mRNA): 1.4 FC
  60 nM FC (GRN mRNA): 1.4 FC
  120 nM FC (GRN mRNA): 1.7 FC

## CO-4594: ASO designed to target intergenic enhancers (eRNA) (antisense eA*eA*eA*eG*eG*eA*e[5mC]*eG*e[5mC]*e[5mC]*eT*eT*e[5mC]*eT*e[5mC]*eT*e[5mC]*eG*eG*eG)
[2]
  hGRN mRNA FC: 1.3 FC

## CO-6423: ASO based on parent ASOs CO-4363 and CO-4364 (eG*eG*eA*e[5mC]*lT*eT*eG*eG*eG*lA*eG*eT*eG*eG*lT*eG*eA*e[5mC]*eT*lG*eA*eA*e[5mC])
[6]
  30 nM FC (GRN mRNA): 1.2 FC
  60 nM FC (GRN mRNA): 2.6 FC
  120 nM FC (GRN mRNA): 2.8 FC

## CO-4586: ASO designed to target intergenic enhancers (eRNA) (antisense eT*eG*eA*e[5mC]*eA*eA*eG*e[5mC]*eG*eG*eG*eA*eT*e[5mC]*eG*eG*eA*eG*eA*eG)
[2]
  hGRN mRNA FC: 0.9 FC

## CO-6410: ASO based on parent ASO CO-3462 (antisense eT*eAeG*eG*eAeG*eA*eAeT*e[5mC]*eGe[5mC]*eT*eTeT*eG*eGeG*eA*eG)
[1]
  30 nM FC (GRN mRNA): 1.1 FC
  60 nM FC (GRN mRNA): 1.0 FC
  120 nM FC (GRN mRNA): 1.6 FC

## CO-6447: ASO designed to target an intragenic enhancer RNA (eRNA) (eA*eT*eG*eG*eT*eT*e[5mC]*eT*eA*e[5mC]*e[5mC]*eT*eG*e[5mC]*eT*eG*eT*eG*eA*eG)
[7]
  hGRN mRNA FC: 1.2 FC

## CO-4631: ASO designed to target intergenic enhancers (eRNA) (antisense eA*e[5mC]*e[5mC]*eA*e[5mC]*eT*e[5mC]*eT*eG*e[5mC]*eA*eG*eT*eT*eG*eT*eA*eT*eG*eG)
3.75 nM to 120 nM, 48 hours
  hit identification (GRN mRNA dose escalation): initial hits
[2]
  hGRN mRNA FC: 1.1 FC
Table 10, 3.75 nM, 48 hours, normalized to CO-1589
  3.75 nM FC (GRN mRNA): 1.1 FC
[8]
  7.5 nM FC (GRN mRNA): 1.1 FC
  30 nM FC (GRN mRNA): 1.1 FC
  60 nM FC (GRN mRNA): 1.1 FC
  120 nM FC (GRN mRNA): 1.3 FC
Table 10, 15 nM, 48 hours, normalized to CO-1589
  15 nM FC (GRN mRNA): 1.2 FC

## CO-4354: LNA/PS modified ASO based on CO-3423 (antisense eG*eG*eA*l[5mC]*eT*lT*eG*lG*eG*lA*eG*lT*eG*lG*eT*lG*eA*l[5mC]*eT*eG)
[9]
  30 nM FC (GRN mRNA): 1.6 FC
  60 nM FC (GRN mRNA): 1.9 FC
  120 nM FC (GRN mRNA): 1.9 FC

## CO-4453: mixed PO/PS bond version of CO-3423 (antisense eG*eG*eAe[5mC]eT*eT*eG*eG*eG*eA*eG*eT*eG*eG*eT*eGeAe[5mC]*eT*eG)
[10]
  30 nM FC (GRN mRNA): 1.4 FC
  60 nM FC (GRN mRNA): 1.9 FC
  120 nM FC (GRN mRNA): 1.9 FC

## CO-6425: ASO based on parent ASOs CO-4363 and CO-4364 (eG*eG*eG*eA*e[5mC]*eT*eT*eG*eG*eG*eA*eG*eT*eG*eG*eT*eG*eA*e[5mC]*eT*eG*eA*eA*e[5mC])
[6]
  30 nM FC (GRN mRNA): 0.9 FC
  60 nM FC (GRN mRNA): 1.3 FC
  120 nM FC (GRN mRNA): 1.3 FC

## CO-6397: ASO based on parent ASO CO-3462 (antisense eT*eA*eG*eG*eA*lG*eA*eA*eT*e[5mC]*lG*e[5mC]*eT*eT*eT*lG*eG*eG*eA*eG)
[1]
  30 nM FC (GRN mRNA): 1.4 FC
  60 nM FC (GRN mRNA): 1.8 FC
  120 nM FC (GRN mRNA): 1.8 FC

## CO-6439: ASO designed to target an intragenic enhancer RNA (eRNA) (eG*e[5mC]*eT*e[5mC]*e[5mC]*e[5mC]*eT*eG*eT*eG*eT*eG*e[5mC]*eT*eA*e[5mC]*eT*eG*eA*eG)
[7]
  hGRN mRNA FC: 1.1 FC

## CO-6513: ASO based on parent ASO CO-3462 (antisense eT*eA*eGeGeAeGeAeAeT*e[5mC]*eG*e[5mC]*eT*eT*eT*eG*eG*eG*eA*eG)
[1]
  30 nM FC (GRN mRNA): 1.3 FC
  60 nM FC (GRN mRNA): 2.7 FC
  120 nM FC (GRN mRNA): 1.8 FC

## CO-4629: ASO designed to target intergenic enhancers (eRNA) (antisense eA*eT*eG*eG*e[5mC]*eA*eA*eA*eT*eG*eA*e[5mC]*e[5mC]*eT*eT*e[5mC]*eG*eG*eT*eA)
[2]
  hGRN mRNA FC: 1.1 FC

## CO-4639: ASO designed to target intergenic enhancers (eRNA) (antisense eG*eA*eA*eA*eT*eT*eT*eA*eT*eG*e[5mC]*eG*eG*e[5mC]*e[5mC]*eA*e[5mC]*eT*eG*eT)
[2]
  hGRN mRNA FC: 1.1 FC

## CO-6514: ASO based on parent ASO CO-3462 (antisense eT*eA*eGeGeAeGeAeAeTe[5mC]eG*e[5mC]*eT*eT*eT*eG*eG*eG*eA*eG)
[1]
  30 nM FC (GRN mRNA): 1.4 FC
  60 nM FC (GRN mRNA): 1.9 FC
  120 nM FC (GRN mRNA): 1.8 FC

## CO-4623: ASO designed to target intergenic enhancers (eRNA) (antisense e[5mC]*e[5mC]*eT*eG*eA*e[5mC]*e[5mC]*eT*eG*e[5mC]*e[5mC]*eA*eT*e[5mC]*eT*eA*eT*e[5mC]*eA*eA)
[2]
  hGRN mRNA FC: 1.1 FC

## CO-4353: LNA/PS modified ASO based on CO-3423 (antisense eG*eG*eA*e[5mC]*eT*lT*dG*dG*lG*dA*dG*lT*dG*dG*lT*eG*eA*e[5mC]*eT*eG)
[9]
  30 nM FC (GRN mRNA): 1.4 FC
  60 nM FC (GRN mRNA): 1.4 FC
  120 nM FC (GRN mRNA): 1.8 FC

## CO-4356: LNA/PS modified ASO based on CO-3423 (antisense eG*eG*lA*e[5mC]*eT*lT*eG*eG*lG*eA*eG*lT*eG*eG*lT*eG*eA*l[5mC]*eT*eG)
[9]
  30 nM FC (GRN mRNA): 1.6 FC
  60 nM FC (GRN mRNA): 1.8 FC
  120 nM FC (GRN mRNA): 2.2 FC

## CO-4600: ASO designed to target intergenic enhancers (eRNA) (antisense eT*eT*eA*eG*e[5mC]*eA*e[5mC]*eG*eT*eG*eG*eA*e[5mC]*eT*e[5mC]*e[5mC]*eG*eA*eG*eG)
[2]
  hGRN mRNA FC: 1.0 FC
